# Source: patent publication US20040033482A1, “Device and method for the measurement of forces from living materials” (priority 2000, published 2004)
# System: fibroblasts (or smooth muscle cells)
# Experiment: Measurement of lateral intrinsic forces of a cell layer cultured on an elastically deformable membrane (membrane deflection read by laser)
# Assay type: cell-based
# Settings: for change in cell layer tension in dependence on time: FIG. 4, consecutive addition of thrombin (20, 50, 100 U/ml), EDTA (0.1% by weight, 2 min), trypsin (0.2% by weight, 15 min); for tension transmitted to the membrane (intrinsic forces): FIG. 5 and FIG. 6, addition of thrombin, then EDTA, then trypsin
# Procedure: A commercially available PET membrane is adhered to an open end of a cylinder; the other end remains open. During the adhesion process, a metal ring is used to pull uniformly on the membrane, such that the membrane is then stretched so that it is completely flat but not plastically deformed. 400 μl of cell culture medium (DPBS), corresponding to a fill height of a liquid column of about 2 mm, are then applied to the membrane (having a diameter of 16 mm). Due to the culture medium, the membrane is elastically preformed, i.e. deflected, and prepared for the application of living material.
# 1 ml of a suspension of fibroblasts (or smooth muscle cells), containing a cell count of 5×10^4/ml (or 7×10^4/ml), is then added to the prestretched membrane and the entire device is incubated in an incubator at 37° C. for 4 days for the purpose of culturing the cells. After the culturing, the culture medium is replaced with 400 μl of fresh medium. The mounting, together with membrane and cells cultured on it, which has thus been prepared is inserted into the measuring device and the measurement is carried out using a laser beam as the sensor.
# As a result of replication, the cells adhere to the membrane and form a confluent monolayer (or multilayer). In connection with this, the cells secrete, over time, an extracellular matrix (ECM).
# As a result of the growth of the cells, and the tensile stress in the cell layer and in the ECM which is connected therewith, and as a result of the fact that the cells and the ECM adhere to the membrane, the membrane experiences a change in tension. As a consequence of this, the deflection of the membrane decreases and raises the fill level of the medium slightly. This change in the deflection of the membrane is determined using a laser.
# In order to stimulate the cell layer(s), thrombin is added to the medium to give final concentrations of 0-100 U/ml. 20 U/ml of culture medium are added first of all. The thrombin binds to the thrombin receptors and induces cell contraction. The membrane rises further to a slight extent. In this connection, the cells contract with a time constant which is typical. After a theoretically infinite measuring time, the measured change in the deflection of the membrane reaches a typical saturation value. Further quantities of thrombin are added consecutively to the cell culture medium above the membrane in increasing order, i.e. initially 50 U/ml and then 100 U/ml. The changes in the deflection of the membrane are measured correspondingly.
# In each case, the cells are permitted to develop the contraction until, in the simplest case by way of fitting an exponential function, there is no need to await the achievement of the final value but, instead, the final measurement of the achievable concentration can be approximated. This decreases the measuring time. Both the characteristic onset time for the thrombin-mediated contraction effect and the maximum contraction which can be achieved in association with this contraction can be calculated from the exponential function which has been fitted.
# The cells are detached from the ECM by adding EDTA (0.1% by weight) for a reaction time of 2 min. The same volumes as the quantities of liquid which are added in this connection are simultaneously removed once again at another site in the measuring chamber. The cells become detached with a typical time constant. As a consequence of this, the tension in the membrane changes since the forces acting on the membrane as a result of the cell contraction are no longer present; this means that the membrane becomes further deflected once again. In this case, too, an exponential function is approximated and the time constant and the final value of the tension recovery can be calculated approximately.
# The ECM which is adhering to the membrane still maintains a part of the tension which arose during the cell growth. Adding trypsin (0.2% by weight) for a reaction time of 15 min. degrades the ECM. […]
molecule,measurement,value
O=C(O)CN(CCN(CC(=O)O)CC(=O)O)CC(=O)O [EDTA],change in cell layer tension in dependence on time,intrinsic forces which are measured decrease
same,tension transmitted to the membrane (intrinsic forces),membrane relaxing
thrombin,change in cell layer tension in dependence on time,contraction of the living material can be observed to increase as the concentration of thrombin increases
same,tension transmitted to the membrane (intrinsic forces),increase markedly
trypsin,change in cell layer tension in dependence on time,also declines
same,tension transmitted to the membrane (intrinsic forces),tension in the extracellular matrix to subside
